Results as given in the supplement of paper PMC11061612.

Assays:
Assay in all cases: Bliss excess, mean over the matrix (fraction); higher = more synergy
[1] = system: KMOE-2 (Acute Myeloid Leukemia)
Outline: (§1)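 Cell lines grown in DMEM/F12 or RPMI with 10% FBS were plated in 1536-well plates and held 24 hours at 37°C, 5% CO2 before 72 hours of exposure to two-drug dose matrices, with DMSO typically at 0.2%. CellTiter-Glo 2.0 luminescence gave viability, which was converted to inhibition. Vehicle wells were set to 0 and blank wells to 1. Combination Emax is the second-highest inhibition in the matrix, and Bliss excess is the observed combination effect minus the expected EA + EB − EA·EB, where EA and EB are the single-agent effects.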

[2] = system: NUGC-3 (Gastric Carcinoma)
Outline: as §1

[3] = system: TK10 (Kidney Carcinoma)
Outline: as §1

[4] = system: TE-1 (Esophageal Squamous Cell Carcinoma)
Outline: as §1

[5] = system: NEC8 (Other Solid Carcinomas)
Outline: as §1

[6] = system: NCI-H1915 (Non-Small Cell Lung Carcinoma)
Outline: as §1

[7] = system: Hs-766T (Pancreatic Carcinoma)
Outline: as §1

[8] = system: PWR-1E (Non-Cancerous)
Outline: as §1

[9] = system: EoL-1-cell (Acute Myeloid Leukemia)
Outline: as §1

[10] = system: NB69 (Neuroblastoma)
Outline: as §1

[11] = system: D-263MG (Glioblastoma)
Outline: as §1

[12] = system: OE19 (Esophageal Adenocarcinoma)
Outline: as §1

[13] = system: NCI-H358 (Lung Adenocarcinoma)
Outline: as §1

[14] = system: LU-65 (Non-Small Cell Lung Carcinoma)
Outline: as §1

[15] = system: EW-24 (Ewing's Sarcoma)
Outline: as §1

[16] = system: SCC-15 (Oral Cavity Carcinoma)
Outline: as §1

[17] = system: EFM-19 (Breast Carcinoma)
Outline: as §1

[18] = system: OSC-20 (Oral Cavity Carcinoma)
Outline: as §1

[19] = system: HSC-4 (Oral Cavity Carcinoma)
Outline: as §1

[20] = system: OVCAR-4 (Ovarian Carcinoma)
Outline: as §1

Row | Compound | Bliss excess [1] | Bliss excess [2] | Bliss excess [3] | Bliss excess [4] | Bliss excess [5] | Bliss excess [6] | Bliss excess [7] | Bliss excess [8] | Bliss excess [9] | Bliss excess [10] | Bliss excess [11] | Bliss excess [12] | Bliss excess [13] | Bliss excess [14] | Bliss excess [15] | Bliss excess [16] | Bliss excess [17] | Bliss excess [18] | Bliss excess [19] | Bliss excess [20]
1 | CCN(CCO)CCCOc1ccc2c(Nc3cc(CC(=O)Nc4cccc(F)c4)[nH]n3)ncnc2c1 [AZD2811] + O=C(c1cc(Cc2n[nH]c(=O)c3ccccc23)ccc1F)N1CCN(C(=O)C2CC2)CC1 [Olaparib] (first compound max 1 µM, 7x7, partner max 10 µM) | 0.0545 | 0.0181 | -0.0391 | -0.031 | 0.0116 | 0.025 | -0.0415 | 0.0243 | -0.03 | -0.0517 | -0.0018 | 0.0454 | -0.063 | 0.0014 | 0.0173 | -0.0376 | -0.0669 | -0.0196 | -0.0347 | 0.0234
2 | CN(CCO)CC[C@H](CSc1ccccc1)Nc1ccc(S(=O)(=O)NC(=O)c2ccc(N3CCC([C@@H](O)c4ccccc4-c4ccc(Cl)cc4)CC3)cc2)cc1S(=O)(=O)C(F)(F)F [AZD4320] + CN(C)CCCOc1ccc(-c2ccc3ncc4c(c3c2)n(C2CCOCC2)c(=O)n4C)cn1 [AZD0156] (first compound max 1 µM, 7x7, partner max 1 µM) | 0.0446 | -0.0477 | -0.0373 | -0.033 | -0.0167 | 0.0196 | -0.087 | -0.0208 | 0.024 | -0.12 | -0.0256 | -0.086 | -0.0101 | -0.016 | -0.0096 | -0.0538 | -0.0491 | -0.0595 | -0.0579 | -0.0155
3 | COc1nnc2ccc(N3CCC(c4ccc(OCCN5CCN(C)C(=O)[C@H]5C)cc4)CC3)nn12 [AZD5153] + C=CCn1c(=O)c2cnc(Nc3ccc(N4CCN(C)CC4)cc3)nc2n1-c1cccc(C(C)(C)O)n1 [AZD1775] (first compound max 1 µM, partner max 1 µM) | 0.0656 | -0.0249 | -0.0831 | -0.0357 | -0.0352 | -0.0565 | -0.0369 | -0.127 | -0.011 | -0.0206 | -0.0619 | -0.0441 | -0.113 | -0.0806 | -0.0125 | -0.0427 | -0.026 | 0.0068 | -0.0852 | -0.0935
4 | COc1nnc2ccc(N3CCC(c4ccc(OCCN5CCN(C)C(=O)[C@H]5C)cc4)CC3)nn12 [AZD5153] + CC1(C)CCC(CN2CCN(c3ccc(C(=O)NS(=O)(=O)c4ccc(NCC5CCOCC5)c([N+](=O)[O-])c4)c(Oc4cnc5[nH]ccc5c4)c3)CC2)=C(c2ccc(Cl)cc2)C1 [Venetoclax] (first compound max 1 µM, 7x7, partner max 1 µM) | -0.0718 | -0.0746 | -0.0549 | -0.0383 | -0.0661 | -0.0659 | -0.0487 | -0.0826 | -0.0183 | 0.0488 | -0.0613 | 0.0029 | -0.049 | -0.072 | -0.0962 | -0.0681 | -0.0442 | -0.0554 | -0.0705 | -0.0104
5 | COc1nnc2ccc(N3CCC(c4ccc(OCCN5CCN(C)C(=O)[C@H]5C)cc4)CC3)nn12 [AZD5153] + CCN(CCO)CCCOc1ccc2c(Nc3cc(CC(=O)Nc4cccc(F)c4)[nH]n3)ncnc2c1 [AZD2811] (first compound max 1 µM, 7x7, partner max 1 µM) | -0.0176 | -0.0372 | -0.0717 | 0.0103 | -0.0072 | -0.0764 | -0.0263 | -0.0096 | 0.003 | -0.0087 | -0.0231 | -0.0026 | -0.0479 | -0.0399 | -0.0598 | -0.0546 | -0.0262 | -0.0785 | -0.129 | -0.0568
6 | COc1nnc2ccc(N3CCC(c4ccc(OCCN5CCN(C)C(=O)[C@H]5C)cc4)CC3)nn12 [AZD5153] + C[C@@H]1COCCN1C2=NC(=NC(=C2)C3(CC3)[S@](=N)(=O)C)C4=C5C=CNC5=NC=C4 [AZD6738] (first compound max 1 µM, 7x7, partner max 10 µM) | 0.0743 | 0.0398 | -0.0406 | 0.019 | 0.0124 | -0.0054 | -0.0137 | 0.0015 | -0.0066 | 0.008 | 0.0106 | -0.0416 | -0.0855 | -0.0292 | -0.0044 | 0.0084 | 0.0541 | -0.0201 | -0.0215 | 0.0127
7 | COc1nnc2ccc(N3CCC(c4ccc(OCCN5CCN(C)C(=O)[C@H]5C)cc4)CC3)nn12 [AZD5153] + Cc1c2c(nn1C)CSCc1cc(n(C)n1)CSc1cc(c3ccccc3c1)OCCCc1c(C(=O)O)n(C)c3c-2c(Cl)ccc13 [AZD5991] (first compound max 1 µM, 7x7, partner max 1 µM) | -0.0322 | -0.0233 | -0.0459 | -0.0166 | 0.0672 | -0.0343 | -0.0369 | 0.0557 | -0.0073 | -0.0334 | 0.105 | -0.0322 | -0.059 | -0.0445 | -0.0044 | -0.0167 | 0.059 | -0.0091 | -0.101 | -0.0152
8 | COc1nnc2ccc(N3CCC(c4ccc(OCCN5CCN(C)C(=O)[C@H]5C)cc4)CC3)nn12 [AZD5153] + Cn1cnc2c(F)c(Nc3ccc(Br)cc3Cl)c(C(=O)NOCCO)cc21 [Selumetinib] (first compound max 1 µM, 7x7, partner max 10 µM) | 0.0402 | -0.0071 | 0.0204 | 0.0111 | 0.0165 | -0.0186 | -0.0627 | -0.0044 | 0.0345 | 0.0191 | 0.0205 | -0.02 | -0.0409 | 0.031 | -0.0748 | 0.032 | -0.0565 | -0.0816 | -0.0246 | -0.0214
9 | Cc1c2c(nn1C)CSCc1cc(n(C)n1)CSc1cc(c3ccccc3c1)OCCCc1c(C(=O)O)n(C)c3c-2c(Cl)ccc13 [AZD5991] + C1CN(CCC1(C(=O)N[C@@H](CCO)C2=CC=C(C=C2)Cl)N)C3=NC=NC4=C3C=CN4 [Capivasertib] (first compound max 1 µM, 7x7, partner max 3 µM) | -0.002 | -0.0051 | -0.031 | -0.0107 | 0.0812 | 0.0103 | -0.0994 | -0.0077 | 0.0528 | -0.0071 | 0.083 | -0.0273 | -0.0179 | -0.013 | 0.0392 | 0.0106 | 0.0003 | 0.0036 | -0.0327 | -0.0114
10 | Cc1c2c(nn1C)CSCc1cc(n(C)n1)CSc1cc(c3ccccc3c1)OCCCc1c(C(=O)O)n(C)c3c-2c(Cl)ccc13 [AZD5991] + C=CCn1c(=O)c2cnc(Nc3ccc(N4CCN(C)CC4)cc3)nc2n1-c1cccc(C(C)(C)O)n1 [AZD1775] (first compound max 1 µM, partner max 1 µM) | 0.0087 | -0.0088 | 0.0159 | -0.0456 | -0.0089 | -0.0552 | 0.0172 | -0.0124 | 0.0097 | -0.0267 | -0.0168 | -0.0082 | -0.0047 | -0.118 | 0.0056 | -0.0365 | 0.054 | -0.0115 | -0.0805 | 0.0117
11 | Cc1c2c(nn1C)CSCc1cc(n(C)n1)CSc1cc(c3ccccc3c1)OCCCc1c(C(=O)O)n(C)c3c-2c(Cl)ccc13 [AZD5991] + CCN(CCO)CCCOc1ccc2c(Nc3cc(CC(=O)Nc4cccc(F)c4)[nH]n3)ncnc2c1 [AZD2811] (first compound max 1 µM, 7x7, partner max 1 µM) | 0.0471 | 0.0454 | 0.0117 | 0.0705 | 0.0348 | 0.0197 | -0.0019 | 0.151 | 0.0044 | 0.0311 | 0.122 | -0.0098 | -0.0392 | -0.0258 | -0.0172 | -0.0061 | 0.122 | 0.0042 | -0.0283 | 0.0989
12 | Cc1c2c(nn1C)CSCc1cc(n(C)n1)CSc1cc(c3ccccc3c1)OCCCc1c(C(=O)O)n(C)c3c-2c(Cl)ccc13 [AZD5991] + CN(C)CCCOc1ccc(-c2ccc3ncc4c(c3c2)n(C2CCOCC2)c(=O)n4C)cn1 [AZD0156] (first compound max 1 µM, 7x7, partner max 1 µM) | -0.0526 | 0.0167 | -0.0089 | -0.0702 | 0.0201 | -0.0186 | -0.0006 | 0.027 | -0.006 | -0.136 | 0.0047 | -0.0242 | 0.0096 | -0.001 | 0.0103 | -0.0048 | -0.03 | 0.0236 | -0.0955 | 0.0076
13 | Cc1c2c(nn1C)CSCc1cc(n(C)n1)CSc1cc(c3ccccc3c1)OCCCc1c(C(=O)O)n(C)c3c-2c(Cl)ccc13 [AZD5991] + C[C@@H](Nc1cc(F)cc(F)c1)c1cc(C(=O)N(C)C)cc2c(=O)cc(N3CCOCC3)oc12 [AZD8186] (first compound max 1 µM, 7x7, partner max 3 µM) | -0.0378 | 0.0052 | -0.0736 | -0.0186 | 0.008 | -0.0265 | -0.111 | -0.0134 | 0.0072 | -0.0207 | 0.0849 | 0.043 | -0.0519 | -0.0428 | -0.0426 | 0.0139 | -0.0123 | -0.0335 | -0.063 | 0.0433
14 | Cc1c2c(nn1C)CSCc1cc(n(C)n1)CSc1cc(c3ccccc3c1)OCCCc1c(C(=O)O)n(C)c3c-2c(Cl)ccc13 [AZD5991] + Cc1cc2ncnn2cc1Nc1ncc2c(n1)n(C1CCOCC1)c(=O)n2C [AZD7648] (first compound max 1 µM, 7x7, partner max 10 µM) | -0.0085 | -0.0237 | -0.0327 | -0.0494 | -0.0056 | -0.0226 | -0.0936 | -0.0363 | -0.0018 | -0.0009 | 0.0046 | -0.0645 | -0.0836 | -0.105 | -0.035 | -0.042 | -0.0215 | -0.0567 | -0.0702 | -0.0073
